Results: patent EP0897920A1, “NOVEL HETEROCYCLIC COMPOUNDS HAVING PLATELET AGGREGATION INHIBITORY EFFECTS” (MEIJI SEIKA KABUSHIKI KAISHA, priority 1996, dated 1997)
Counter-ions that a name gives are not always drawn. Like-named read-outs stand apart in the source and are kept apart here.

Columns and labels:
[1] = system: human PRP (platelet rich plasma); assay: Inhibitory activity against platelet aggregation (ADP-induced, human PRP); type: cell-based; conditions: aggregation inducer ADP 5 µM, preincubated 2 min
Protocol: The inhibitory activity of the compound according to the present invention against platelet aggregation was examined with human PRP (platelet rich plasma).
Nine volumes of a blood sample was taken out of the vein of a normal human being with a syringe in which one volume of a 3.8% sodium citrate solution was charged. The blood sample was centrifuged at 170 x g at room temperature for 10 min. The supernatant thus obtained was isolated as PRP. The residual blood sample that PRP had been taken out was centrifuged at 2,700 x g for 15 min. The supernatant was then taken as platelet poor plasma (PPP).
A platelet aggregation test was carried out with an aggligometer (PAM-8C, manufactured by MEBANICKS Co. Ltd.). Compounds under test were dissolved in physiological saline, 0.1 N hydrochloric acid-physiological saline, or 1 N aqueous sodium hydroxide solution-physiological saline. The compound under test and PRP were preincubated for 2 min. An aggregation inducer ADP (CHRONO-PAR REAGENTS 384 ADP, CHRONO-LOG Corp.) was used after dilution with physiological saline to a final concentration of 5 µM.
The anti-platelet aggregation activity was determined as an inhibition rate to platelet aggregation effect of ADP in the absence of a compound under tent as follows. Anti-platelet aggregation activity (%) = [1 - (aggregation rate by ADP in the presence of test compound/aggregation rate by ADP in the absence of test compound)] x 100 [formula]

human TXA2 synthetase = target: T1, human TXA2 synthetase (Homo sapiens, UniProt P24557); assay: Inhibitory activity against thromboxane A2 (TXA2) synthetase; type: biochemical
T1 construct: purchased BIOMOL
T1 sequence (P24557 1-533): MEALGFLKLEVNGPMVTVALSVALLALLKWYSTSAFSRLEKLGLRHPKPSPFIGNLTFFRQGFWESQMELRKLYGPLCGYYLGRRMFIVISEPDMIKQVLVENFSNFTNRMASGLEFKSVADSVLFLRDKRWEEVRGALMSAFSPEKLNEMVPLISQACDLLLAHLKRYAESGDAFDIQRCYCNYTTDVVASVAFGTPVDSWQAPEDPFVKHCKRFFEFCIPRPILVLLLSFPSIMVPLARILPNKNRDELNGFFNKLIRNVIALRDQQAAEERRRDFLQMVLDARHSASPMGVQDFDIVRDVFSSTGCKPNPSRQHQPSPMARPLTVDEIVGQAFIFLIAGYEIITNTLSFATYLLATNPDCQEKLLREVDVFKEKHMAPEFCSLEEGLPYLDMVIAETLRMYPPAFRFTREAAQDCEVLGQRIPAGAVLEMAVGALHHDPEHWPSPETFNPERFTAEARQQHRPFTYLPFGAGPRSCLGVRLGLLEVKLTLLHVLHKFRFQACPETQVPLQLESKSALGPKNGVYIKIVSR
Protocol: The inhibitory activity of the compound of the present invention against TXA2 synthetase was assayed according to a method established by Ri et al. (Nihon Yakuri Gakkaishi, 106, 31 (1995)). A specimen solution (10 µl) was added to 100 µl of a 50 mM Tris-HCl buffer (containing 0.1 M NaCl, pH 7.5, 25°C) containing 10 µg of human TXA2 synthetase (BIOMOL), and incubation was then carried out at 25°C for 3 min. Next, 2 µl of 50 µg/ml PGH2 solution (Cayman Chemical) was added thereto to initiate an enzyme reaction, followed by the reaction at 25°C for 3 min. An aqueous ferrous chloride solution (25 mM, 10 µl) was added thereto to terminate the reaction. The reaction system was allowed to stand at room temperature for 15 min and then centrifuged under conditions of 4°C, 3000 x g, and 10 min. The supernatant was obtained as a sample for quantitative determination of TXB2. The amount of TXB2 was determined by means of Thromboxane B2 Enzyme Immunoassay Kit (Cayman Chemical). After a color reaction, the absorbance was measured at 415 nm with a microplate reader (MTP-32, manufactured by Corona Electric Co., Ltd.). The inhibition against TXA2 synthetase activity was calculated by the following equation, and 50% inhibition concentration was determined by regression straight line. Inhibition (%) = (1 - B/A) x 100 [formula] wherein • A represents the amount of TXB2 produced without the test compound; and • B represents the amount of TXB2 produced with the test compound.

[2] = target: T2, human platelet GPIIb/IIIa (Homo sapiens, UniProt P05106+P08514); assay: Inhibitory activity against binding between platelet GPIIb/IIIa and fibrinogen (solid phase receptor binding)
T2 construct: the adsorbed GPIIb/IIIa was eluted with buffer A containing 2 mM GRGDSPK peptide; from tissue
Text: The inhibitory activity of the compounds of the present invention against binding between platelet GPIIb/IIIa and fibrinogen was examined by means of a human platelet GPIIb/IIIa solid phase receptor binding experiment system using a biotinylated human fibrinogen as a ligand.
At the outset, human platelet GPIIb/IIIa was purified according to a method established by Pytela, R et al. (Science, 231, 1559-1561 (1986)). Specifically, platelets collected from a normal human being was washed with TBS (0.15 M NaCl/50 mM Tris-HCl buffer (pH 7.5)) containing 0.2% (w/v) glucose. To the resultant pellet was added an equal amount of TBS containing 50 mM octylglucoside and 2 mM PMSF, followed by solubilization of membrane protein at 4°C for 20 min. The extract was centrifuged under conditions of 4°C, 3500 x g, and 20 min. To the supernatant were added 1 mM CaCl2 and 1 mM MgCl2. Thus, a sample for affinity chromatography was prepared. The solubilized protein solution was adsorbed on a GRGDSPK-Sepharose column which had been previously equilibrated with TBS containing 50 mM octylglucoside, 1 mM CaCl2, and 1 mM MgCl2 (buffer A). After washing with buffer A, the adsorbed GPIIb/IIIa was eluted with buffer A containing 2 mM GRGDSPK peptide.
The GRGDSPK-Sepharose was prepared by coupling of GRGDSPK peptide with CNBr-activated Sepharose 4B (manufactured by Pharmacia) according to the instruction manual of the manufacturer.
Next, a human platelet GPIIb/IIIa solid phase receptor binding test was carried out according to a method established by Mori et al. (Nippon Kessen Shiketsu Gakkaishi, 2(4), 323-329 (1991)).
Purified human platelet GPIIb/IIIa was adjusted to 2 µg/ml, and an 50 µl aliquot was adsorbed on each well of a 96 well microtiter plate at 4°C overnight. After washing with TBS containing 1 mM CaCl2 and 1 mM MgCl2, 100 µl of 1% bovine serum albumin was added to each of the wells, followed by blocking at 4°C overnight. The microtiter plate was then washed with TBS containing 0.01% Tween 20 (TBS-Tween 20), and 50 µl of biotinylated fibrinogen, which had been adjusted to 1 µg/ml, was added to each of the wells. Simultaneously, 50 µl of the test compound, which had been adjusted to appropriate concentrations, was added thereto, followed by a reaction at room temperature for 4 hr. After washing with TBS-Tween 20, 50 µl of peroxidase-labelled avidin, which had been diluted 4000 times with TBS, was added to each of the wells, followed by a reaction for 20 min. After washing with TBS-Tween 20, 50 µl of a solution of 1 mg/ml ABTS (2,2'-azino-bis(3-ethylbenzthiazoline-6-sulfonic acid) dissolved in a peroxidase substrate buffer, which had been diluted 10 times, was added to each of the wells, and a reaction was allowed to proceed for 5 min. Next, 50 µl of a 0.1 M citric acid buffer (pH 4.3) containing 0.05% NaN3 was added to each of the wells to terminate the reaction, and the absorbance was measured at 415 nm.
The binding inhibition was calculated by the following equation.
Binding inhibition (%) = [1 - (absorbance with test compound/absorbance without test compound)] x 100

[3] = human TXA2 synthetase, PGH2 substrate, 25°C, TXB2 determined by enzyme immunoassay, read-out: IC50
[4] = purified human platelet GPIIb/IIIa, biotinylated human fibrinogen as ligand, read-out: IC50

T2 sequence (P08514 32-887 limits assumed): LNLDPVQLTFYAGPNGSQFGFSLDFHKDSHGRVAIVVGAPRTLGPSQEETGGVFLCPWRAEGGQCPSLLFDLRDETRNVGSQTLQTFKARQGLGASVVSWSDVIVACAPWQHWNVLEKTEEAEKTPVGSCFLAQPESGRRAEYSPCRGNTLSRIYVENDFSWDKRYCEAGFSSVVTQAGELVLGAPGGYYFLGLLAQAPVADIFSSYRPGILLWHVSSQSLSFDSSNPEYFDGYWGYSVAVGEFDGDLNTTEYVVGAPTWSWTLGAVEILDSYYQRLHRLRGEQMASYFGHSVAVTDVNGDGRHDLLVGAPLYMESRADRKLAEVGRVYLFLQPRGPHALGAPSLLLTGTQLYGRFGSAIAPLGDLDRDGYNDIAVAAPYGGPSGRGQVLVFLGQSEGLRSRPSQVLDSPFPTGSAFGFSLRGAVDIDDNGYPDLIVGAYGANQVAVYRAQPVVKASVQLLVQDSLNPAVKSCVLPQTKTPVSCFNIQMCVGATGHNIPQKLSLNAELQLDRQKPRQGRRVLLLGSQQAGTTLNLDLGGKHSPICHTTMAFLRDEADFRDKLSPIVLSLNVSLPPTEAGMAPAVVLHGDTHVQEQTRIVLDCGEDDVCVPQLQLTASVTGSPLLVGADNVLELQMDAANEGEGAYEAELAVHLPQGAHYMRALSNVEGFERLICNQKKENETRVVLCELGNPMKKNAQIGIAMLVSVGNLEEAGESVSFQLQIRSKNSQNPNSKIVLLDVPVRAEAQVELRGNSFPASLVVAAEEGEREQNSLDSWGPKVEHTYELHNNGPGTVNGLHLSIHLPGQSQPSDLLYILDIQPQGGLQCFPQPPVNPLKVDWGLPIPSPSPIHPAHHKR
T2 sequence (P08514 891-1039 partner limits assumed): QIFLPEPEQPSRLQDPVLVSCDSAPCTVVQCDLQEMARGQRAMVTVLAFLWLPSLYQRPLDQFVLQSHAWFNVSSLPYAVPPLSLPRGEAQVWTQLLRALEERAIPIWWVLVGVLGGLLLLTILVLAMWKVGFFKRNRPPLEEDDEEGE
T2 sequence (P05106 27-788): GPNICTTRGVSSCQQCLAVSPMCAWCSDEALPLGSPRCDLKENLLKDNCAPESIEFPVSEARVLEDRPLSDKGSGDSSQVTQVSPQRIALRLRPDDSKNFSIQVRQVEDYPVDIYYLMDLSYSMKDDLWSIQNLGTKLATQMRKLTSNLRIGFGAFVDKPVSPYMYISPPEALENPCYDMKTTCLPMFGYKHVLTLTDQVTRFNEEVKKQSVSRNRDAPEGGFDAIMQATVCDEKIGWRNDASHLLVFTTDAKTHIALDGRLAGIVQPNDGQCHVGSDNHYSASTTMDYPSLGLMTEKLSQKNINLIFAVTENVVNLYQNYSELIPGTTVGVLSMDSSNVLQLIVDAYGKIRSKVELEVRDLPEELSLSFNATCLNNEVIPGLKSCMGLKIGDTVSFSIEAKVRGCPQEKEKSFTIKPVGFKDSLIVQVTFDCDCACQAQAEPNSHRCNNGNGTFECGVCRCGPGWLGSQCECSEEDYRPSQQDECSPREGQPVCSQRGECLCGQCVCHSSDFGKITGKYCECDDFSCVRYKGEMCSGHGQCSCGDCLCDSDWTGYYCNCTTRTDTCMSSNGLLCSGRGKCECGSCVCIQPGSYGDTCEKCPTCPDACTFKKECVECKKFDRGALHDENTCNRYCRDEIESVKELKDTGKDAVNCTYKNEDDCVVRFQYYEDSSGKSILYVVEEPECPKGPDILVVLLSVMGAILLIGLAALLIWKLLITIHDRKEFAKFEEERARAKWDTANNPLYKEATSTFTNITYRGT

Molecule: O=C(O)COc1ccc(C(=O)CNC(=O)c2cc3c(s2)CCNC3)cc1Cn1ccnc1 [Example 1, [2-(Imidazol-1-yl)methyl-4-[[[4,5,6,7-tetrahydrothieno[3,2-c]pyridin-2-yl]carbonylamino]acetyl]phenyl]oxyacetic acid trifluoroacetate (TFA)]
- IC50 ([1]; Platelet): 4400 nM
- IC50 (human TXA2 synthetase; [3]): 360 nM
- IC50 [2, 4]: 270 nM

Molecule: O=C(O)COc1ccc(C(=O)CNC(=O)c2cc3c(s2)CCNC3)cc1COc1cccnc1 [Example 2, [2-(Pyridin-3-yl)oxymethyl-4-[[[4,5,6,7-tetrahydrothieno[3,2-c]pyridin-2-yl]carbonylamino]acetyl]phenyl]oxyacetic acid trifluoroacetate]
- IC50 ([1]; Platelet): 9300 nM
- IC50 (human TXA2 synthetase; [3]): > 10000 nM
- IC50 [2, 4]: 270 nM

Molecule: O=C(O)COc1ccc(C(CNC(=O)c2cc3c(s2)CCNC3)Oc2cccnc2)cc1OCC(=O)O (stereo not drawn) [Example 3, [[4-[2-[[4,5,6,7-Tetrahydrothieno[3,2-c]pyridin-2-yl]carbonyl]amino-1-[(pyridin-3-yl)oxy]ethyl]-o-phenylene]dioxy]diacetic acid trifluoroacetate]
- IC50 ([1]; Platelet): 360 nM
- IC50 (human TXA2 synthetase; [3]): 550 nM
- IC50 [2, 4]: 1.4 nM

Molecule: CN(CC(Oc1cccnc1)c1ccc(OCC(=O)O)c(OCC(=O)O)c1)C(=O)c1cc2c(s1)CCNC2 (stereo not drawn) [Example 4, [[4-[2-[[(4,5,6,7-Tetrahydrothieno[3,2-c]pyridin-2-yl)carbonyl]-N-methylamino]-1-(pyridin-3-yl)oxyethyl]-o-phenylene]dioxy]diacetic acid trifluoroacetate]
- IC50 ([1]; Platelet): 140 nM
- IC50 (human TXA2 synthetase; [3]): 870 nM
- IC50 [2, 4]: 4.8 nM

Molecule: O=C(O)COc1ccc(C(CNC(=O)c2cc3c(s2)CCNC3)Oc2cccnc2)cc1 (stereo not drawn) [Example 5, [4-[2-[[(4,5,6,7-Tetrahydrothieno[3,2-c]pyridin-2-yl)carbonyl]amino]-1-(pyridin-3-yl)oxyethyl]phenyl]oxyacetic acid trifluoroacetate]
- IC50 ([1]; Platelet): 280 nM
- IC50 (human TXA2 synthetase; [3]): 160 nM
- IC50 [2, 4]: 10 nM

Molecule: O=C(O)COc1ccc(C(=O)CN2CCN(C3CCNCC3)CC2=O)cc1Cn1ccnc1 [Example 6, [2-(1-Imidazolylmethyl)-4-[[4-(piperidin-4-yl)-2-oxopiperazin-1-yl]acetyl]phenyl]oxyacetic acid trifluoroacetate]
- IC50 ([1]; Platelet): 71 nM
- IC50 (human TXA2 synthetase): 570 nM
- IC50 [2]: 12 nM

Molecule: O=C(O)COc1ccc(C(=O)CN2C(=O)CN(C3CCNCC3)CC2=O)cc1Cn1ccnc1 [Example 8, [2-(1-Imidazolylmethyl)-4-[[4-(piperidin-4-yl)-2,6-dioxopiperazin-1-yl]acetyl]phenyl]oxyacetic acid trifluoroacetate]
- IC50 ([1]; Platelet): 31 nM
- IC50 (human TXA2 synthetase; human TXA2 synthetase, PGH2 substrate, 25°C, TXB2 determined by enzyme immunoassay): 690 nM
- IC50 ([2]; purified human platelet GPIIb/IIIa, biotinylated human fibrinogen as ligand): 190 nM

Molecule: [4-[[4-(Piperidin-4-yl)-2-oxopiperazin-1-yl]acetyl]-2-(3-pyridyloxymethyl)phenyl]oxyacetic acid trifluoroacetate [Example 7]
- IC50 [1]: 93 nM
- IC50 (human TXA2 synthetase; [3]): > 10000 nM
- IC50 [2, 4]: 23 nM
